In patent US7012090B1, “Pyranoindoles for treating glaucoma” (Alcon, Inc., priority 2000, dated 2006):
Where a name gives a salt, the structure may show the parent alone.

Key:
brain 5-HT2 receptors = brain 5-HT2 receptors (Rattus norvegicus, UniProt P14842); experiment: 5HT2 Receptor Binding Assay ([125I]DOI competition); conditions: inhibition of [125I]DOI binding, rat or human cerebral cortex homogenates
Method: 5HT2 Receptor Binding Assay
Aliquots of post mortem rat or human cerebral cortex homogenates (400 μl) dispersed in 50 mM TrisHCl buffer (pH 7.4) are incubated with [^125I]DOI (80 pM final) in the absence or presence of methiothepin (10 μM final) to define total and non-specific binding, respectively, in a total volume of 0.5 ml. The assay mixture is incubated for 1 hour at 23° C. in polypropylene tubes and the assays terminated by rapid vacuum filtration over Whatman GF/B glass fiber filters previously soaked in 0.3% polyethyleneimine using ice-cold buffer. Test compounds (at different concentrations) are substituted for methiothepin. Filter-bound radioactivity is determined by scintillation spectrometry on a beta counter. The data are analyzed using a non-linear, iterative curve-fitting computer program [Trends Pharmacol. Sci., 16, 413 (1995)] to determine the compound affinity parameter. The concentration of the compound needed to inhibit the [^125I]DOI binding by 50% of the maximum is termed the IC50 value.

5-HT2 receptor = target: T1, 5-HT2 receptor (Rattus norvegicus, UniProt P14842); experiment: 5-HT2 Functional Assay: Phosphoinositide (PI) Turnover Assay; assay type: cell-based; conditions: for EC50: [3H]inositol phosphate production in A7r5 rat vascular smooth muscle cells; for Emax: A7r5 cells, relative to 5-HT set at 100%, read-out: Efficacy (Emax, %)
T1 construct: [^3H]myo-inositol-labeled A7r5 rat vascular smooth muscle cells; endogenous in cells; host or cells: A7r5 rat vascular smooth muscle cells
T1 sequence (P14842 whole entry): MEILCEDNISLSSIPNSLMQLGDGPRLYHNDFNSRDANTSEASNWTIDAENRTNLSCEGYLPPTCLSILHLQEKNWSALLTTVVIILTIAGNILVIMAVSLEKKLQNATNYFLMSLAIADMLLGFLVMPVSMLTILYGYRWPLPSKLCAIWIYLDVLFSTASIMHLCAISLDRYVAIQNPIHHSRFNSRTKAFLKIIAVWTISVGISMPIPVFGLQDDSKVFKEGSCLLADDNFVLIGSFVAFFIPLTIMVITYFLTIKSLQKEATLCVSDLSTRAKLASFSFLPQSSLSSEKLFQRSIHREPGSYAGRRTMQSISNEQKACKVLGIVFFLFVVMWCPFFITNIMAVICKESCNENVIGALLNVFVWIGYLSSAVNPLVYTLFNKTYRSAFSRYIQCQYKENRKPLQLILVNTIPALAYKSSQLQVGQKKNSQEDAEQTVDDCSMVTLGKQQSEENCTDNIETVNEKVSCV
Method: 5-HT2 Functional Assay: Phosphoinositide (PI) Turnover Assay
The relative agonist activity of serotonergic compounds at the 5-HT2 receptor can be determined in vitro using the ability of the compounds to stimulate the production of [^3H]inositol phosphates in [^3H]myo-inositol-labeled A7r5 rat vascular smooth muscle cells by their ability to activate the enzyme phospholipase C. These cells are grown in culture plates, maintained in a humidified atmosphere of 5% CO2 and 95% air and fed semi-weekly with Dulbecco's modified Eagle medium (DMEM) containing 4.5 g/l glucose and supplemented with 2 mM glutamine, 10 μg/ml gentamicin, and 10% fetal bovine serum. For the purpose of conducting the phosphoinositide (PI) turnover experiments, the A7r5 cells are cultured in 24-well plates as previously [J. Pharmacol. Expt. Ther., 286, 411 (1998)]. Confluent cells are exposed for 24-30 hrs to 1.5 μCi [^3H]-myo-inositol (18.3 Ci/mmol) in 0.5 ml of serum-free medium. Cells are then rinsed once with DMEM/F-12 containing 10 mM LiCl prior to incubation with the test agent (or solvent as the control) in 1.0 ml of the same medium for 1 hr at 37° C., after which the medium is aspirated and 1 ml of cold 0.1 M formic acid added to stop the reaction. The chromatographic separation of [^3H]-inositol phosphates ([^3H]-IPs) on an AG- 1-X8 column is performed as previously described [J. Pharmacol. Expt. Ther. 286, 411 (1998)] with sequential washes with H2O and 50 mM ammonium formate, followed by elution of the total [^3H]-IPs fraction with 1.2 M ammonium formate containing 0.1 M formic acid. The eluate (4 ml) is collected, mixed with 15 ml scintillation fluid, and the total [^3H]-IPs determined by scintillation counting on a beta-counter. Concentration-response data are analyzed by the sigmoidal fit function of the Origin Scientific Graphics software (Microcal Software, Northampton, Mass.) to determine agonist potency (EC50 value) and efficacy (Emax). Serotonin (5-HT) is used as a positive control (standard) agonist compound and the efficacy of test compounds is compared to that of 5-HT (set at 100%). The concentration of the compound needed to stimulate the production of [^3H]-IPs by 50% of the maximum response is termed the EC50 value.

[1] = system: Lasered (Hypertensive) Eyes of Conscious Cynomolgus Monkeys; experiment: Acute IOP Response in Lasered (Hypertensive) Eyes of Conscious Cynomolgus Monkeys; assay type: in vivo, Cynomolgus monkey; conditions: lasered eye
Method: Acute IOP Response in Lasered (Hypertensive) Eyes of Conscious Cynomolgus Monkeys
Intraocular pressure (IOP) was determined with an Alcon Pneumatonometer after light corneal anesthesia with 0.1% proparacaine. Eyes were washed with saline after each measurement. After a baseline IOP measurement, test compound was instilled in one 30 μL aliquot to the right eyes only of nine cynomolgus monkeys. Vehicle was instilled in the right eyes of six additional animals. Subsequent IOP measurements were taken at 1, 3, and 6 hours. A compound is considered efficacious in this model of ocular hypertension if there is a decrease in the baseline IOP of the lasered eye (O.D.) of at least 20% following topical administration.

[2] = 1 hour after dose, 300 μg topical
[3] = 3 hours after dose, 300 μg topical
[4] = 6 hours after dose, 300 μg topical

Sequence of brain 5-HT2 receptors (P14842 whole entry): as above

## CC(N)Cc1cn(C)c2ccc3c(c12)CCCO3 (stereo not drawn) (as salt: hydrochloride) [Example 1, 1-Methyl-2-(3-methyl3,7,8,9-tetrabydro-pyrano[3,2-e]indol-1-yl)-ethylamine hydrochloride]
other
  melting point: 214 to 217 °C

## COc1cc(C[C@@H](C)N)c(OC)cc1I [(R)-DOI, reference compound]
Brain 5-HT2 receptors
  IC50: 0.46 nM
5-HT2 receptor
  EC50: 27.7 nM
[1]; 1 hour after dose, 100 μg topical
  Percent IOP Reduction ± SEM: 11.0 ± 4.98%
[1]; 3 hours after dose, 100 μg topical
  Percent IOP Reduction ± SEM: 25.3 ± 2.97%
[1]; 6 hours after dose, 100 μg topical
  Percent IOP Reduction ± SEM: 34.4 ± 4.98%

## CC(N)Cc1cn(C)c2ccc3c(c12)CCCO3 (stereo not drawn) [Example 1, 1-Methyl-2-(3-methyl3,7,8,9-tetrabydro-pyrano[3,2-e]indol-1-yl)-ethylamine hydrochloride]
5-HT2 receptor
  Emax: 119%
  EC50: 189 nM
[1]; [2]
  Percent IOP Reduction ± SEM: 18.8 ± 3.31%
[1]; [3]
  Percent IOP Reduction ± SEM: 28.0 ± 5.20%
[1]; [4]
  Percent IOP Reduction ± SEM: 26.1 ± 5.35%

## CC(N)Cc1c[nH]c2ccc3c(c12)CCCO3.Cl (stereo not drawn) [Example 3, 1-Methyl-2-(3,7,8,9-tetrahydro-pyrano[3,2-e]indol-1-yl)-ethylamine hydrochloride]
5-HT2 receptor
  Emax: 81%
  EC50: 116 nM
[1]; [2]
  Percent IOP Reduction ± SEM: 16.0 ± 3.79%
[1]; [3]
  Percent IOP Reduction ± SEM: 28.0 ± 5.49%
[1]; [4]
  Percent IOP Reduction ± SEM: 22.9 ± 6.70%

## C[C@@H](N)Cc1c[nH]c2ccc3c(c12)CCCO3 [Example 4, (R)-1-Methyl-2-(3,7,8,9-tetrahydro-pyrano[3,2-e]indol-1-yl)ethylamine hydrochloride]
5-HT2 receptor
  Emax: 109%
  EC50: 111 nM

## CC(N)Cc1c[nH]c2ccc3c(c12)CC(O)CO3.Cl (stereo not drawn) [Example 6, 1-(2-Aminopropyl)-3,7,8,9-tetrahydro-pyrano[3,2-e]indol-8-ol hydrochloride]
5-HT2 receptor
  Emax: 92%
  EC50: 300 nM
other
  melting point: 187 to 192 °C
